Source: patent US9975910B2, “Hetero-fused cyclic compound” (Eisai R&D Management Co., Ltd., priority 2013, dated 2018)
In brackets after ≈: the same amount, converted by molar mass.

Assays:
[1] = system: C. albicans CAF2-1 strains; experiment: Anticandidal activity (MIC measurement); assay type: cell-based; settings: for MIC: Candida albicans, CAF21STRAINS; for Anticandidal activity compared with amphotericin B: result in words
Protocol: The anticandidal activity of Reference Examples 1, 2, and 3 and Comparative Examples 1, 2, and 3 produced using Examples and amphotericin B was measured as follows.
C. albicans CAF2-1 strains were subjected to static culture in a Sabouraud dextrose liquid culture medium (SDB) at 30° C. for 48 hours; and the bacterial suspension was diluted with an RPMI1640 culture medium to prepare a 1.2×10^3 cells/mL bacterial suspension.
The diluted solutions of eight test compounds in plates (A to H) were prepared using a U-bottomed 96-well plate. 10 μL of a dimethyl sulfoxide solution was poured into columns 2 to 12 of the individual plates. The weighed test compounds were separately dissolved in dimethyl sulfoxide to prepare 2.5 mg/mL solutions; then, these solutions (20 μL) were placed in column 1 of the prepared plates, and were subjected to two-fold serial dilution in 12 steps on the plates (10 μL of solution+10 μL of dimethyl sulfoxide solution). The diluted solutions of the test compounds each were placed in a flat-bottomed 96-well plate for MIC measurement in an amount of 1 μL to prepare plates of the diluted test compound.
The bacterial suspension prepared in (1) (99 μL/well) was inoculated into the flat-bottomed 96-well plate containing the diluted solutions of the test compounds (1 μL/well) prepared in (2), and was subjected to static culture at 35° C. for 42 to 48 hours under an aerobic condition.

[2] = Evaluation on lipid solubility: distribution ratio (D) of 1-octanol to water by ODS column HPLC; assay type: physicochemical; settings: 1-octanol/water, pH 6.8, from HPLC retention on ODS column
Protocol: A parameter of lipid solubility, i.e., a distribution ratio (D) of a 1-octanol to water (pH: 6.8) was determined with an ODS (silica gel having a surface modified with an octadecylsilyl group) column by the following method.
The mobile phase shown in Table 2 was added to sodium nitrate (to marker) and six standard substances having known partition coefficients shown in Table 2 to prepare mixed solutions each containing 5 μg/mL sodium nitrate and a 10 μg/mL or 10 μL/mL standard substance; these mixed solutions were used as standard solutions. The mobile phase shown in Table 3 was added to a sample, the concentration was adjusted to 0.1 mM to prepare a sample solution. HPLC analysis of the standard solutions and the sample solution was performed on the following conditions, and the retention times (tr) of the standard substances and the sample were measured. From the retention factor (kstd) determined from the partition coefficient (log P) of the standard substance and Expression I, the regression coefficient (a) and the constant term (b) in Expression II were determined; using Expression III, the partition coefficient (log D) at a pH of 6.8 was calculated from the retention factor (ksmpt) of the sample; finally, the distribution ratio (D) of 1-octanol to water (pH: 6.8) was obtained.
Reference: Exploring QSAR-Hydrophobic, and Steric Constants, Corwin Hansch, Albert Leo, and David Hoekman, ACS Professional Reference Book k=(tr−t0)/t0 Expression I log P=a×log kstd+b Expression II log D=a×log ksmp+b Expression III (2) Measurement Conditions

[3] = Metabolic stability of pooled human liver microsomes; assay type: in vitro ADME; settings: for Residual rate of unchanged substance (%): 0.3 μM compound, 0.2 mg/mL microsomes, 37° C., NADPH; for microsomal CLint at 0.3 μM: ke/(concentration of pooled human liver microsomes), read-out: Hepatic intrinsic clearance; for Clearance of human liver microsomes compared with the respective Comparative Example: result in words
Protocol: Evaluations on the metabolic stability of human liver microsomes prepared in Reference Examples 1 and 2 and Comparative Examples 1 and 2 produced using Examples were performed as follows.
A test compound was added to an enzyme solution (pooled human liver microsomes (0.2 mg/mL), 100 mM Kpi, containing 0.1 mM EDTA), and was incubated in the presence of a coenzyme for a predetermined time at 37° C. The final concentration of the test compound was 0.3 μM. As the coenzyme, an NADPH-generating system (solution in which 60 mM MgCl2 solution containing 3.6 mM β-NADP^+, 90 mM glucose-6-phosphate, and 1 Unit/mL glucose-6-phosphate dehydrogenated enzyme was incubated at 37° C. for 5 minutes to generate NADPH) was used. After pre-incubation, part of the reaction solution was extracted; a double amount of a mixed solution of acetonitrile and methanol (7:3, containing 1.0 μM Propranolol as an internal standard substance) was added to terminate the reaction, and the concentration of the unchanged substance in the reaction solution was measured by LC-MS/MS. Based on the peak area of the unchanged substance obtained, the residual rate (%) of the unchanged substance was calculated wherein the residual rate at 0 min (incubation time) was 100%. Namely, the inclination of the straight line obtained when the value obtained by natural logarithmic conversion of the residual rate of the unchanged substance after a predetermined reaction time was plotted as the ordinate, and the reaction time was plotted as the abscissa was defined as an elimination rate constant (ke). Based on the obtained elimination rate constant ke, the hepatic intrinsic clearance of the test compound was calculated with the following expression: Hepatic intrinsic clearance (mL/min/mg protein)=ke/(concentration of pooled human liver microsomes: mg protein/mL)

[4] = Evaluation on solubility (HPLC-UV, phosphate-buffered saline); assay type: physicochemical; settings: for solubility: aqueous buffer, kinetic from dmso stock, Dulbecco's phosphate-buffered saline pH 7 (GIBCO), room temperature, about 15 minutes shaking; for Solubility compared with Comparative Example 1 and Comparative Example 2: phosphate-buffered saline pH 7, result in words
Protocol: The supernatant was then separated through vacuum filtration operation. A dimethyl sulfoxide solution (sample concentration: 100 μM) was used as a standard solution, and the sample concentration in the supernatant determined by an HPLC-UV method was defined as solubility. Test solution: pH of 7, GIBCO™ (Dulbecco's phosphate-buffered saline, Invitrogen Corporation)

[5] = standard substances, known values (Hansch, Leo, Hoekman); cited from earlier work
[6] = RPMI1640, 35° C., 42 to 48 hours, visually determined

| Structure (SMILES) | Anticandidal activity (MIC) [1, 6] | chromatographic logD [2] | Residual rate of unchanged substance (%) ([3]; After 0 min (defined as 100%)) | Residual rate of unchanged substance (%) ([3]; After 15 min) | Residual rate of unchanged substance (%) ([3]; After 30 min) | Residual rate of unchanged substance (%) ([3]; After 60 min) | microsomal CLint at 0.3 μM [3] | MIC [1, 6] | Anticandidal activity compared with amphotericin B [1] | solubility [4] | Clearance of human liver microsomes compared with the respective Comparative Example [3] | Solubility compared with Comparative Example 1 and Comparative Example 2 [4] | Partition coefficient (logP) [5] |
| --- | --- | --- | --- | --- | --- | --- | --- | --- | --- | --- | --- | --- | --- |
| C[C@@H]1[C@H](O)[C@@H](C)/C=C/C=C/C=C/C=C/C=C/C=C/C=C/[C@H](O[C@@H]2O[C@H](C)[C@@H](O)[C@H](N)[C@@H]2O)C[C@@H]2O[C@](O)(C[C@@H](O)C[C@@H](O)[C@H](O)CC[C@@H](O)C[C@@H](O)CC(=O)O[C@H]1C)C[C@H](O)[C@H]2C(=O)O [Amphotericin B] | 1.6 µg/mL | – | – | – | – | – | – | – | – | – | – | – | – |
| Cc1cc(Cc2ccc(CNC(=O)c3ccc(N)nc3N)cc2)sc1C [Comparative Example 1, 2,6-Diamino-N-({4-[(4,5-dimethylthiophen-2-yl)methyl]phenyl}methyl)-pyridine-3-carboxamide, reference compound] | – | 3.27 | 100.0% | 93.1% | 77.0% | 56.2% | 50 µL/min/mg | 0.13 µg/mL (≈ 0.355 µM) | strong anticandidal activity equal to that of amphotericin B | 0.2 µM (≈ 0.0733 µg/mL) | – | – | – |
| Cc1nc(N)c(C(=O)NCc2ccc(COc3ccccn3)cc2)nc1C [Comparative Example 2, 3-Amino-5,6-dimethyl-N-({4-[(pyridin-2-yloxy)methyl]phenyl}methyl)pyrazine-2-carboxamide, reference compound] | – | 3.26 | 100.0% | 73.0% | 53.7% | 30.9% | 98 µL/min/mg | 0.063 µg/mL (≈ 0.173 µM) | strong anticandidal activity equal to that of amphotericin B | 0.9 µM (≈ 0.327 µg/mL) | – | – | – |
| Cc1cc(C(=O)NCc2ccc(OCc3ccccc3)cc2)c(N)nc1C [Comparative Example 3, 2-Amino-N-(4-(benzyloxy)benzyl)-5,6-dimethylnicotinamide, reference compound] | – | 3.41 | 100.0% | 65.0% | – | – | 150 µL/min/mg | 0.13 µg/mL (≈ 0.36 µM) | strong anticandidal activity equal to that of amphotericin B | – | – | – | – |
| Nc1ccc(C(=O)NCc2ccc(Cc3cc4c(s3)COC4)cc2)c(N)n1 [Reference Example 1] | – | 2.15 | 100.0% | 83.6% | 75.9% | 61.4% | 39 µL/min/mg | 0.25 µg/mL (≈ 0.657 µM) | strong anticandidal activity equal to that of amphotericin B | 13.9 µM (≈ 5.29 µg/mL) | improved | higher | – |
| Nc1nc2c(nc1C(=O)NCc1ccc(COc3ccccn3)cc1)COC2 [Reference Example 2, 5-Amino-N-({4-[(pyridin-2-yloxy)methyl]phenyl}methyl)-1,3-dihydrofuro[3,4-b]pyrazine-6-carboxamide] | – | 2.72 | 100.0% | 87.0% | 77.6% | 65.4% | 35 µL/min/mg | 0.5 µg/mL (≈ 1.32 µM) | strong anticandidal activity equal to that of amphotericin B | 2.1 µM (≈ 0.793 µg/mL) | improved | higher | – |
| Nc1nc2c(cc1C(=O)NCc1ccc(OCc3ccccc3)cc1)COC2 [Reference Example 3] | – | 2.72 | 100.0% | 78.0% | – | – | 82 µL/min/mg | 2 µg/mL (≈ 5.33 µM) | strong anticandidal activity equal to that of amphotericin B | – | improved | – | – |
| CCCCc1ccccc1 [n-Butylbenzene] | – | – | – | – | – | – | – | – | – | – | – | – | 4.38 |
